Data taken from US11844767B2, “Composition and methods for stimulating clearance of amyloid-beta protein” (Rush University Medical Center, priority 2016, dated 2023).

Assays:
LDLR = assay: Quantitative RT-PCR of LDLR expression in astrocytes; assay type: cell-based, mouse
Experimental: The mRNA quantification was performed using the ABI-Prism7700 sequence detection system using SYBR Select master mix. The mRNA expression of the targeted genes was normalized to the level of Gapdh mRNA and data was processed by the ABI Sequence Detection System 1.6 software.

TFEB = details: alone and in conjunction with all-trans-retinoic acid; cited from earlier work

In the case of `Cc1ccc(C)c(OCCCC(C)(C)C(=O)O)c1` [GFB, gemfibrozil], the “expression of LDLR” value (LDLR; PPARα(−/−) cells) is given as “not”, the “expression of LDLR” value (LDLR; WT astrocytes) is given as “increased” and the “TFEB in brain cells” value (TFEB) is given as “capable of enhancing TFEB”.
